Measurements taken from patent US9040528B2, “Chemical compounds 542” (AstraZeneca AB, priority 2008, dated 2015).

Molecular target: Escherichia coli DNA gyrase A/B tetramer (Escherichia coli (strain K12), UniProt P0AES4+P0AES6)
Test: DNA gyrase supercoiling activity fluorescence polarisation assay
Format: biochemical
Settings: 5 nM enzyme, relaxed plasmid, 0.3 mM ATP, ambient temperature; read-out: E. coli DNA gyrase supercoiling IC50
Outline: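 Supercoiling reactions quenched with 40 nM 5′-BODIPY-FL triplex-forming oligonucleotide probe in pH 3.5 NaCl/sodium acetate buffer; after 60 min, fluorescence anisotropy read (ex 485/em 535 nm). IC50 by nonlinear regression, normalised to 0.8% DMSO (100% activity) and 5 μM ciprofloxacin (0% activity).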

Compound | IC50
C[C@@H]1CN2c3c(nc4c(-c5ccc(C(N)=O)nc5)noc4c3Cl)CC3(C(=O)NC(=O)NC3=O)[C@H]2[C@H](C)O1 (relative stereo) [Example 123, 5-((2R,4S,4aS)-rel-11-chloro-2,4-dimethyl-2′,4′,6′-trioxo-2,2′,3′,4,4a,4′,6,6′-octahydro-1H,1′H-spiro[isoxazolo[4,5-g][1,4]oxazino[4,3-a][1,5]naphthyridine-5,5′-pyrimidine]-8-yl)picolinamide] | 5800 nM
C[C@@H]1CN2c3c(nc4c(-c5nccn5C)noc4c3Cl)CC3(C(=O)NC(=O)NC3=O)[C@H]2[C@H](C)O1 (relative stereo) [Example 114, (2R,4S,4aS)-rel-11-Chloro-2,4-dimethyl-8-(1-methyl-1H-imidazol-2-yl)-2,4,4a,6-tetrahydro-1H,1′H-spiro[isoxazolo[4,5-g][1,4]oxazino[4,3-a][1,5]naphthyridine-5,5′-pyrimidine]-2′,4′,6′(3′H)-trione] | 5200 nM
C[C@@H]1CN2c3c(cc4c(-c5cncnc5)noc4c3Cl)CC3(C(=O)NC(=O)NC3=O)[C@H]2[C@H](C)O1 (racemic) [Example 44, (2R,4S,4 aS)-rel-11-chloro-2,4-dimethyl-8-(pyrimidin-5-yl)-1,2,4,4a-tetrahydro-2′H,6H-spiro[1,4-oxazino[4,3-a][1,2]oxazolo[4,5-g]quinoline-5,5′-pyrimidine]-2′,4′,6′(1′H,3′H)-trione] | 1000 nM
CNC(=O)c1noc2c(F)c3c(cc12)CC1(C(=O)NC(=O)NC1=O)[C@H]1[C@H](C)O[C@H](C)CN31 (relative stereo) [Example 140, (2R,4S,4aS)-rel-11-fluoro-N,2,4-trimethyl-2′,4′,6′-trioxo-2,2′,3′,4,4a,4′,6,6′-octahydro-1H,1′H-spiro[isoxazolo[4,5-g][1,4]oxazino[4,3-a]quinoline-5,5′-pyrimidine]-8-carboxamide] | 1100 nM
C[C@@H]1CN2c3c(cc4c(-c5cccnc5)noc4c3Cl)CC3(C(=O)NC(=O)NC3=O)[C@H]2[C@H](C)O1 (relative stereo) [Example 47, (2R,4S,4aS)-rel-11-chloro-2,4-dimethyl-8-(pyridin-3-yl)-1,2,4,4a-tetrahydro-2′H,6H-spiro[1,4-oxazino[4,3-a][1,2]oxazolo[4,5-g]quinoline-5,5′-pyrimidine]-2′,4′,6′(1′H,3′H)-trione] | 300 nM
C[C@H]1CN2c3c(cc4c(-c5ccncn5)noc4c3F)CC3(C(=O)NC(=O)NC3=O)[C@@H]2[C@@H](C)O1 [Example 74(a), (2S,4R,4aR)-11-fluoro-2,4-dimethyl-8-(pyrimidin-4-yl)-2,4,4a,6-tetrahydro-1H,1′H-spiro[isoxazolo[4,5-g][1,4]oxazino[4,3-a]quinoline-5,5′-pyrimidine]-2′,4′,6′(3′H)-trione] | 27000 nM
C[C@@H]1CN2c3c(cc4c(-c5ncc(C(=O)N(C)C)s5)noc4c3F)CC3(C(=O)NC(=O)NC3=O)[C@H]2[C@H](C)O1 (relative stereo) [Example 87, 2-[(2R,4S,4aS)-rel-11-fluoro-2,4-dimethyl-2′,4′,6′-trioxo-1,1′,2,3′,4,4′,4a,6′-octahydro-2′H,6H-spiro[1,4-oxazino[4,3-a][1,2]oxazolo[4,5-g]quinoline-5,5′-pyrimidin]-8-yl]-N,N-dimethyl-1,3-thiazole-5-carboxamide] | 6700 nM
C[C@@H]1CN2c3c(cc4c(C(F)(F)F)noc4c3F)CC3(C(=O)NC(=O)NC3=O)[C@H]2[C@H](C)O1 [Example 92(b), (2R,4S,4aS)-11-fluoro-2,4-dimethyl-8-(trifluoromethyl)-2,4,4a,6-tetrahydro-1H,1′H-spiro[isoxazolo[4,5-g][1,4]oxazino[4,3-a]quinoline-5,5′-pyrimidine]-2′,4′,6′(3′H)-trione] | 600 nM
C[C@@H]1CN2c3c(nc4c(-c5nccs5)noc4c3Cl)CC3(C(=O)NC(=O)NC3=O)[C@H]2[C@H](C)O1 (relative stereo) [Example 111, (2R,4S,4aS)-rel-11-chloro-2,4-dimethyl-8-(thiazol-2-yl)-2,4,4a,6-tetrahydro-1H,1′H-spiro[isoxazolo[4,5-g][1,4]oxazino[4,3-a][1,5]naphthyridine-5,5′-pyrimidine]-2′,4′,6′(3′H)-trione] | 700 nM
COC[C@@H]1O[C@H](C)CN2c3c(cc4c(C)noc4c3F)CC3(C(=O)NC(=O)NC3=O)[C@@H]12 (relative stereo) [Example 105, (2R,4R,4aS)-rel-11-fluoro-4-(methoxymethyl)-2,8-dimethyl-1,2,4,4a-tetrahydro-2′H,6H-spiro[1,4-oxazino[4,3-a][1,2]oxazolo[4,5-g]quinoline-5,5′-pyrimidine]-2′,4′,6′(1′H,3′H)-trione] | 700 nM
C[C@@H]1CN2c3c(nc4c(C(=O)N5CC(F)(F)C5)noc4c3Cl)CC3(C(=O)NC(=O)NC3=O)[C@H]2[C@H](C)O1 (relative stereo) [Example 130, (2R,4S,4aS)-rel-11-Chloro-8-(3,3-difluoroazetidine-1-carbonyl)-2,4-dimethyl-2,4,4a,6-tetrahydro-1H,1′H-spiro[isoxazolo[4,5-g][1,4]oxazino[4,3-a][1,5]naphthyridine-5,5′-pyrimidine]-2′,4′,6′(3′H)-trione] | 30000 nM
C[C@@H]1CN2c3c(cc4c(N5CCNCC5)noc4c3F)CC3(C(=O)NC(=O)NC3=O)[C@H]2[C@H](C)O1 (relative stereo) [Example 179, (2R,4S,4aS)-rel-11-fluoro-2,4-dimethyl-8-(piperazin-1-yl)-1,2,4,4a-tetrahydro-2′H,6H-spiro[isoxazolo[4,5-g][1,4]oxazino[4,3-a]quinoline-5,5′-pyrimidine]-2′,4′,6′(1′H,3′H)-trione] | 2000 nM
C[C@@H]1CN2c3c(cc4c(-n5cc(C#N)c(N)n5)noc4c3F)CC3(C(=O)NC(=O)NC3=O)[C@H]2[C@H](C)O1 (relative stereo) [Example 33, 3-amino-1-[(2R,4S,4aS)-rel-11-fluoro-2,4-dimethyl-2′,4′,6′-trioxo-1,1′,2,3′,4,4′,4a,6′-octahydro-2′H,6H-spiro[1,4-oxazino[4,3-a][1,2]oxazolo[4,5-g]quinoline-5,5′-pyrimidin]-8-yl]-1H-pyrazole-4-carbonitrile] | 1000 nM
C[C@@H]1CN2c3c(cc4c(-c5cnccn5)noc4c3F)CC3(C(=O)NC(=O)NC3=O)[C@H]2[C@H](C)O1 [Example 165(b), (2R,4S,4aS)-11-fluoro-2,4-dimethyl-8-(pyrazin-2-yl)-2,4,4a,6-tetrahydro-1H,1′H-spiro[isoxazolo[4,5-g][1,4]oxazino[4,3-a]quinoline-5,5′-pyrimidine]-2′,4′,6′(3′H)-trione] | 200 nM
C[C@@H]1CN2c3c(cc4c(NCc5cnn(C)c5)noc4c3F)CC3(C(=O)NC(=O)NC3=O)[C@H]2[C@H](C)O1 (relative stereo) [Example 12, (2R,4S,4aS)-rel-11-fluoro-2,4-dimethyl-8-{[(1-methyl-1H-pyrazol-4-yl)methyl]amino}-1,2,4,4a-tetrahydro-2′H,6H-spiro[1,4-oxazino[4,3-a][1,2]oxazolo[4,5-g]quinoline-5,5′-pyrimidine]-2′,4′,6′(1′H,3′H)-trione] | 1200 nM
C[C@@H]1CN2c3c(cc4c(-c5ccccn5)noc4c3Cl)CC3(C(=O)NC(=O)NC3=O)[C@H]2[C@H](C)O1 (relative stereo) [Example 38, (2R,4S,4aS)-rel-11-chloro-2,4-dimethyl-8-(pyridin-2-yl)-1,2,4,4a-tetrahydro-2′H,6H-spiro[1,4-oxazino[4,3-a][1,2]oxazolo[4,5-g]quinoline-5,5′-pyrimidine]-2′,4′,6′(1′H,3′H)-trione] | 800 nM
C[C@@H]1CN2c3c(cc4c(-n5nccn5)noc4c3F)CC3(C(=O)NC(=O)NC3=O)[C@H]2[C@H](C)O1 (racemic) [Example 56, (2R,4S,4 aS)-rel-11-fluoro-2,4-dimethyl-8-(2H-1,2,3-triazol-2-yl)-1,2,4,4a-tetrahydro-2′H,6H-spiro[1,4-oxazino[4,3-a][1,2]oxazolo[4,5-g]quinoline-5,5′-pyrimidine]-2′,4′,6′(1′H,3′H)-trione] | 700 nM
C[C@@H]1CN2c3c(cc4c([S+](C)[O-])noc4c3F)CC3(C(=O)NC(=O)NC3=O)[C@H]2[C@H](C)O1 (relative stereo) [Example 181, (2R,4S,4aS)-rel-11-fluoro-2,4-dimethyl-8-(methylsulfinyl)-1,2,4,4a-tetrahydro-2′H,6H-spiro[1,4-oxazino[4,3-a][1,2]oxazolo[4,5-g]quinoline-5,5′-pyrimidine]-2′,4′,6′(1′H,3′H)-trione] | 3300 nM
C[C@@H]1CN2c3c(cc4c(-n5cc(-c6cnccn6)cn5)noc4c3F)CC3(C(=O)NC(=O)NC3=O)[C@H]2[C@H](C)O1 (relative stereo) [Example 35, (2R,4S,4aS)-rel-11-fluoro-2,4-dimethyl-8-[4-(pyrazin-2-yl)-1H-pyrazol-1-yl]-1,2,4,4a-tetrahydro-2′H,6H-spiro[1,4-oxazino[4,3-a][1,2]oxazolo[4,5-g]quinoline-5,5′-pyrimidine]-2′,4′,6′(1′H,3′H)-trione] | 30000 nM
C[C@@H]1CN2c3c(cc4c(-c5cnc(N6CCOCC6)cn5)noc4c3F)CC3(C(=O)NC(=O)NC3=O)[C@H]2[C@H](C)O1 [Example 166(b), (2R,4S,4aS)-11-fluoro-2,4-dimethyl-8-(5-morpholinopyrazin-2-yl)-2,4,4a,6-tetrahydro-1H,1′H-spiro[isoxazolo[4,5-g][1,4]oxazino[4,3-a]quinoline-5,5′-pyrimidine]-2′,4′,6′(3′H)-trione] | 6900 nM
C[C@@H]1CN2c3c(cc4c(-c5cnccn5)noc4c3F)CC3(C(=O)NC(=O)NC3=O)[C@H]2[C@H](C)O1 (relative stereo) [Example 165, (2R,4S,4aS)-rel-11-fluoro-2,4-dimethyl-8-(pyrazin-2-yl)-1,2,4,4a-tetrahydro-2′H,6H-spiro[1,4-oxazino[4,3-a][1,2]oxazolo[4,5-g]quinoline-5,5′-pyrimidine]-2′,4′,6′(1′H,3′H)-trione] | 400 nM
